We go through 1 compound from ChEMBL document CHEMBL4007467, “Effects of 6-paradol, an unsaturated ketone from gingers, on cytochrome P450-mediated drug metabolism” (Bioorg Med Chem Lett, 2017).

Holding throughout (format): ADME
In data set [1] the target is T1, CYP2A6 (Homo sapiens, UniProt P11509).
T1 sequence (P11509 whole entry): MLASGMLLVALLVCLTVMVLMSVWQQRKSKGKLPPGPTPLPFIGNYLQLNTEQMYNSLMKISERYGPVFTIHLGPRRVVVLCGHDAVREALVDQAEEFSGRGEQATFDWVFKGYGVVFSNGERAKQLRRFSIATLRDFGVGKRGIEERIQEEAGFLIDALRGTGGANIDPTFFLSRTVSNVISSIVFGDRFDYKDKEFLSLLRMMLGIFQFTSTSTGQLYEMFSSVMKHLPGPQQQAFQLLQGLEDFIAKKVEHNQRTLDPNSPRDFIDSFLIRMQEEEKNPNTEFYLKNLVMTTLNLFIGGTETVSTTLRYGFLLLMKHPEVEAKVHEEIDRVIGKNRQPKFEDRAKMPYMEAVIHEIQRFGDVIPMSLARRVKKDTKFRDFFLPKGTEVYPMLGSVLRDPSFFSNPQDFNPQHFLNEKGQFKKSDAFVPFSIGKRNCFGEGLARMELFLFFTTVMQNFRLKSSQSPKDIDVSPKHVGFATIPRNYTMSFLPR
The experiment in a line: Inhibition of CYP2A6 in human liver microsomes assessed as enzyme-mediated metabolite formation at 0.1 uM using coumarin as substrate incubated for 5 mins followed by NADPH addition measured after 30 mins by LC-MS/MS analysis relative to control. On the set-up: scale not given: the % may be the effect or the level left. The settings on record: probe coumarin, read-out: Activity. On the technique in general: Microsomes from liver hold many membrane-bound enzymes, among them those of drug oxidation.

Data set [2] deals with T1, CYP2A6. The experiment in a line: Inhibition of CYP2A6 in human liver microsomes assessed as enzyme-mediated metabolite formation at 0.3 uM using coumarin as substrate incubated for 5 mins followed by NADPH addition measured after 30 mins by LC-MS/MS analysis relative to control. Details: scale not given: the % may be the effect or the level left. The settings on record: probe coumarin, read-out: Activity.

Another data set addresses T2, Cytochrome P450 2A6 (Homo sapiens, UniProt P11509).
T2 sequence (P11509 whole entry): T1 sequence (P11509 whole entry)
Kind of data set: Inhibition of CYP2A6 in human liver microsomes assessed as enzyme-mediated metabolite formation using coumarin as substrate incubated for 5 mins followed by NADPH addition measured after 30 mins by LC-MS/MS analysis.

The next data set concerns the target T3, Cytochrome P450 2C8 (Homo sapiens, UniProt P10632).
T3 sequence (P10632 whole entry): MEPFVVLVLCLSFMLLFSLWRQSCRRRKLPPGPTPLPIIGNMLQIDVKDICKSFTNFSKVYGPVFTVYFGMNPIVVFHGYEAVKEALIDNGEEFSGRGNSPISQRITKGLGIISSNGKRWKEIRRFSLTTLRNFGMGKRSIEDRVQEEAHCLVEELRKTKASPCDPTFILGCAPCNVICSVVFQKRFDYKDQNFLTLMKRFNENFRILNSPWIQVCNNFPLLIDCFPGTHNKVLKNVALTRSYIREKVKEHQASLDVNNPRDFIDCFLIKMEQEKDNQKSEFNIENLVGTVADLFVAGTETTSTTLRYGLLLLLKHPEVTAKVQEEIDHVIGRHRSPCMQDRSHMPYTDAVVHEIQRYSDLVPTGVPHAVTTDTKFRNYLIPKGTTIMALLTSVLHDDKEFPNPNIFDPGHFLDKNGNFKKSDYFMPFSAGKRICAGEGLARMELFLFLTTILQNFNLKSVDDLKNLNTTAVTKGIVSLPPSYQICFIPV
Kind of data set: Inhibition of CYP2C8 in human liver microsomes assessed as enzyme-mediated metabolite formation using paclitaxel as substrate incubated for 5 mins followed by NADPH addition measured after 30 mins by LC-MS/MS analysis.

The target in another data set is CYP2C9 (Homo sapiens, UniProt P11712). Kind of data set: Inhibition of CYP2C9 in human liver microsomes assessed as enzyme-mediated metabolite formation at 10 uM using diclofenac as substrate incubated for 5 mins followed by NADPH addition measured after 30 mins by LC-MS/MS analysis relative to control. On the set-up: scale not given: the % may be the effect or the level left. Particulars: probe diclofenac, read-out: Activity.
CYP2C9, sequence (P11712 whole entry): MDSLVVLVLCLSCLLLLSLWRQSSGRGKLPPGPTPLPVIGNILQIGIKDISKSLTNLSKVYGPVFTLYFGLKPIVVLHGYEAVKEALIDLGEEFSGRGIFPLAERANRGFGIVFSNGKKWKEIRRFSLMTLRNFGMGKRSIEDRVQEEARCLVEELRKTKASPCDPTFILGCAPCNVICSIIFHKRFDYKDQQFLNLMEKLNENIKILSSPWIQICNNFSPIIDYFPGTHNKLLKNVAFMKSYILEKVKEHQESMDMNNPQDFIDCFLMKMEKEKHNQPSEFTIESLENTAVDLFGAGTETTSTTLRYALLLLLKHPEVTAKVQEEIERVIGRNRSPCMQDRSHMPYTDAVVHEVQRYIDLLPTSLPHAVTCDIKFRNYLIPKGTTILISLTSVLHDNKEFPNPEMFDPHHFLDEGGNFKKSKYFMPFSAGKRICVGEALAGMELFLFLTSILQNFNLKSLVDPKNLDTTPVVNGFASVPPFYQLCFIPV

The target of the next data set is CYP2C19 (Homo sapiens, UniProt P33261). The experiment in a line: Inhibition of CYP2C19 in human liver microsomes assessed as enzyme-mediated metabolite formation at 10 uM using (S)-mephenytoin as substrate incubated for 5 mins followed by NADPH addition measured after 30 mins by LC-MS/MS analysis relative to control. Particulars: probe (S)-mephenytoin, read-out: Activity. On the set-up: scale not given: the % may be the effect or the level left.
CYP2C19, sequence (P33261 whole entry): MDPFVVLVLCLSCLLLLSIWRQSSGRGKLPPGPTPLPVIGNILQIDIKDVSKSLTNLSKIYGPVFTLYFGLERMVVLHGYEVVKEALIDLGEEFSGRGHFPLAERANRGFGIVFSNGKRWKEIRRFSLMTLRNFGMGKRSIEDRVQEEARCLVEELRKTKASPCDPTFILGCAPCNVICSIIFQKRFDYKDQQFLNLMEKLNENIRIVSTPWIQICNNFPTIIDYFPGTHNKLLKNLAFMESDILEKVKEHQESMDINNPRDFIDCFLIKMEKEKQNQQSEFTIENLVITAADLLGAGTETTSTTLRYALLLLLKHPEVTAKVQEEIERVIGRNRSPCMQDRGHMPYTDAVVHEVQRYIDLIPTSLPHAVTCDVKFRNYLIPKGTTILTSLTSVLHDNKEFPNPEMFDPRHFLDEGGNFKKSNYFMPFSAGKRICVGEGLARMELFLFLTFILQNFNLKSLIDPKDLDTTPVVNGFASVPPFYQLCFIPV

Data set [3] concerns the target T4, CYP3A4 (Homo sapiens, UniProt P08684). Kind of data set: Inhibition of CYP3A4 in human liver microsomes assessed as enzyme-mediated metabolite formation at 0.1 uM using testosterone as substrate incubated for 5 mins followed by NADPH addition measured after 30 mins by LC-MS/MS analysis relative to control. The settings on record: probe testosterone, read-out: Activity. Details: scale not given: the % may be the effect or the level left.

The target of data set [4] is T4, CYP3A4. Kind of data set: Inhibition of CYP3A4 in human liver microsomes assessed as enzyme-mediated metabolite formation at 3 uM using testosterone as substrate incubated for 5 mins followed by NADPH addition measured after 30 mins by LC-MS/MS analysis relative to control. On the set-up: scale not given: the % may be the effect or the level left. Particulars: probe testosterone, read-out: Activity.

Data set [5] addresses T4, CYP3A4. The experiment in a line: Inhibition of CYP3A4 in human liver microsomes assessed as enzyme-mediated metabolite formation at 30 uM using testosterone as substrate incubated for 5 mins followed by NADPH addition measured after 30 mins by LC-MS/MS analysis relative to control. Particulars: probe testosterone, read-out: Activity. Details: scale not given: the % may be the effect or the level left.

The target of the next data set is T5, CYP2C8 (Homo sapiens, UniProt P10632).
T5 sequence (P10632 whole entry): T3 sequence (P10632 whole entry)
The experiment in a line: Inhibition of CYP2C8 in human liver microsomes assessed as enzyme-mediated metabolite formation at 30 uM using paclitaxel as substrate preincubated for 20 mins followed by substrate addition measured after 30 mins in presence of NADPH by LC-MS/MS analysis relative to control. On the set-up: scale not given: the % may be the effect or the level left. Particulars: probe paclitaxel, read-out: Activity.

For data set [6], the target named is T4, CYP3A4. The experiment in a line: Inhibition of CYP3A4 in human liver microsomes assessed as enzyme-mediated metabolite formation at 1 uM using midazolam as substrate preincubated for 20 mins followed by substrate addition measured after 30 mins in presence of NADPH by LC-MS/MS analysis relative to control. Details: scale not given: the % may be the effect or the level left. The settings on record: probe midazolam, read-out: Activity.

Data set [7] deals with T4, CYP3A4. Kind of data set: Inhibition of CYP3A4 in human liver microsomes assessed as enzyme-mediated metabolite formation at 0.1 uM using testosterone as substrate preincubated for 20 mins followed by substrate addition measured after 30 mins in presence of NADPH by LC-MS/MS analysis relative to control. Details: scale not given: the % may be the effect or the level left. Particulars: probe testosterone, read-out: Activity.

The next data set has as its target T6, Cytochrome P450 1A2 (Homo sapiens, UniProt P05177).
T6 sequence (P05177 whole entry): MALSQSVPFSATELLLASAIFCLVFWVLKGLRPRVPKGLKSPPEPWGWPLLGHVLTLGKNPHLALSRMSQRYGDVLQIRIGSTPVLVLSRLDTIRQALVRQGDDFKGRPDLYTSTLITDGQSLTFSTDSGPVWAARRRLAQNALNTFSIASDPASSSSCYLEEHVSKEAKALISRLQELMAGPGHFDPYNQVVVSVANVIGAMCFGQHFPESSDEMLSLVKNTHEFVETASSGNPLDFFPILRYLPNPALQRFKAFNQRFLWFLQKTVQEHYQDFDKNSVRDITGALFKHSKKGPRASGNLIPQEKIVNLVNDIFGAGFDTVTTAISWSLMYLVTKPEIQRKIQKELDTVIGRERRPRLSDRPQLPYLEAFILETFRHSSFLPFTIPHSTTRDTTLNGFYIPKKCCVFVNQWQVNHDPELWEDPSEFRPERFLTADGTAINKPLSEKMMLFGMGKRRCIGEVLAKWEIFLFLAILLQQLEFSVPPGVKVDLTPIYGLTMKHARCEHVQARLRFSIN
Kind of data set: Inhibition of human CYP1A2 using phenacetin as substrate incubated for 5 mins followed by NADPH addition measured after 30 mins by LC-MS/MS analysis.

T4 sequence (P08684 whole entry): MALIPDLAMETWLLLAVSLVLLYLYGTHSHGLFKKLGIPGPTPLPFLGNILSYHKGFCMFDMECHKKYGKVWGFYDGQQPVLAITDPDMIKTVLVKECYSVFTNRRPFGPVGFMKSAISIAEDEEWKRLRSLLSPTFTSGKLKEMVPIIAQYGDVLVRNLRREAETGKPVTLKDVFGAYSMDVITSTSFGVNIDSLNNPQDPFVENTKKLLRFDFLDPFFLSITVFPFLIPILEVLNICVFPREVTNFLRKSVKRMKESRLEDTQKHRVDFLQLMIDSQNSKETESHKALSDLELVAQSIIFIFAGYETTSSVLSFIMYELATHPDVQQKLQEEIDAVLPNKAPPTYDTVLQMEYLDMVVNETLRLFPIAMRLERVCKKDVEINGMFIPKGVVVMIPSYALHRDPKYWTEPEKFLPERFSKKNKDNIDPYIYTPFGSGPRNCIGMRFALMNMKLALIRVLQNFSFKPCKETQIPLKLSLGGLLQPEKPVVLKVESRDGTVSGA

For `CCCCCCCC(=O)CCc1ccc(O)c(OC)c1`, the values for the activity at 0.5 h, 0.1 µM on CYP2A6 [1], at CYP3A4 [3] and at CYP3A4 [7] were 103%, 100% and 93.4%, respectively. Moreover, the activity at 0.5 h, 0.3 µM at CYP2A6 [2] amounted to 83.8%. The values for the IC50 on Cytochrome P450 2A6, on Cytochrome P450 2C8 and at Cytochrome P450 1A2 were above 30 µM, 5.1 µM and 21.4 µM, respectively. The activity at 0.5 h, 10 µM turned out to be 52.3% at CYP2C9 and 51.5% on CYP2C19. The activity at 0.5 h, 3 µM at CYP3A4 [4] is 63.3%. In addition, the activity at 0.5 h, 30 µM at CYP3A4 [5] was 48.6%; at CYP2C8, 40.2%. In addition, at CYP3A4 [6], the activity at 0.5 h, 1 µM is 91.5%. Moreover, the “inhibition (INH)” value against Cytochrome P450 1A2 (human, 0.5 h) is given as “Dose-dependent effect”.

In general, IC50 refers to the point on the concentration scale where inhibition reaches its midpoint.
